Experimental data taken from patent US9771369B2, “Compounds and methods for kinase modulation, and indications therefor” (Plexxikon Inc., priority 2014, dated 2017).

Molecular target: c-Kit kinase (Homo sapiens (Human), UniProt P10721)
Assay: c-Kit biochemical assay (AlphaScreen kinase activity)
In short: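 AlphaScreen: c-Kit phosphorylates biotin-(E4Y)3 (100 nM) at 10 μM ATP, pH 7.2 HEPES buffer with Mg/Mn, 5% DMSO, 1 h room temperature; streptavidin donor and PY30 acceptor beads detect product. Second format: 100 μM ATP, 30 nM biotin-(E4Y)10, pH 7.5. IC50 from 8-point 1:3 dilution curves.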

c-Kit kinase, sequence (P10721 26-976): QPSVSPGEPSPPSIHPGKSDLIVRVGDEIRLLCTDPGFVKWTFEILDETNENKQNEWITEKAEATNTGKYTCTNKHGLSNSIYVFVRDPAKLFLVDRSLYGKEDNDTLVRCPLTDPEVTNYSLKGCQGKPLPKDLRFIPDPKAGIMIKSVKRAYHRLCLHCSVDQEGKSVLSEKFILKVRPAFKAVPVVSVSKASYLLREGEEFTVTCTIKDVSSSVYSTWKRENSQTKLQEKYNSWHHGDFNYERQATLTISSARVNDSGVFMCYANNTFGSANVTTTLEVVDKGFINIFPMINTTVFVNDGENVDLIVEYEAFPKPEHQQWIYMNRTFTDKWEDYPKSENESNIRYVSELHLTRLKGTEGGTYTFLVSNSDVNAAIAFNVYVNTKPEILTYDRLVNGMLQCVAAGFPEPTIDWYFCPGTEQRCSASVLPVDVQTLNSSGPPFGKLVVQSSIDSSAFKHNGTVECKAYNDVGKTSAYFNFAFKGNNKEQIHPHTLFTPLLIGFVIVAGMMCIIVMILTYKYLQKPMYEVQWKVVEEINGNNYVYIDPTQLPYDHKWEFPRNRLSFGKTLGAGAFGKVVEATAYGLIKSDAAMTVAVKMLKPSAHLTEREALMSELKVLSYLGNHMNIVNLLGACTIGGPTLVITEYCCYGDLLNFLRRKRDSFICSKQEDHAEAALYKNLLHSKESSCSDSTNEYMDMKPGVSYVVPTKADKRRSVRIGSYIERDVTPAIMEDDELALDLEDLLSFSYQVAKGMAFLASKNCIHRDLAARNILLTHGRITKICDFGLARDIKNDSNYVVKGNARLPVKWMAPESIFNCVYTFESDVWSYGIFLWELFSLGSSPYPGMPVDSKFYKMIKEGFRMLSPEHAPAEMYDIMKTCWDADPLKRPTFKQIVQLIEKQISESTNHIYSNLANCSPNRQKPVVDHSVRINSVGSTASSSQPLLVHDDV

SMILES	IC50 [µM]
COc1cc(-c2cc3c(N4CCC(c5nc(C)c(-c6cccc(OC(F)(F)F)c6)[nH]5)CC4)ncnc3[nH]2)ccn1 [P-3014, 6-(2-methoxy-4-pyridyl)-4-[4-[4-methyl-5-[3-(trifluoromethoxy)phenyl]-1H-imidazol-2-yl]-1-piperidyl]-7H-pyrrolo[2,3-d]pyrimidine]	1 to 10
COc1ccc(-c2[nH]c(C3CCN(c4ncnc5[nH]c(-c6ccc(C#N)cc6)cc45)CC3)nc2C)cc1 [P-3015, 4-[4-[4-[5-(4-methoxyphenyl)-4-methyl-1H-imidazol-2-yl]-1-piperidyl]-7H-pyrrolo[2,3-d]pyrimidin-6-yl]benzonitrile]	0.0001 to 1
Cc1nc(C2CCN(c3ncnc4[nH]c(-c5ccc(C#N)cc5)cc34)CC2)[nH]c1-c1cccc(F)c1 [P-3016, 4-[4-[4-[5-(3-fluorophenyl)-4-methyl-1H-imidazol-2-yl]-1-piperidyl]-7H-pyrrolo[2,3-d]pyrimidin-6-yl]benzonitrile]	1 to 10
COc1ccc(-c2[nH]c(C3CCN(c4ncnc5[nH]c(-c6ccnc(OC)c6)cc45)CC3)nc2C)cc1 [P-3017, 4-[4-[5-(4-methoxyphenyl)-4-methyl-1H-imidazol-2-yl]-1-piperidyl]-6-(2-methoxy-4-pyridyl)-7H-pyrrolo[2,3-d]pyrimidine]	0.0001 to 1
COc1ccc(-c2[nH]c(C3CCN(c4ncnc5[nH]c(-c6ccc(C#N)cc6)cc45)CC3)nc2C)cc1F [P-3018, 4-[4-[4-[5-(3-fluoro-4-methoxy-phenyl)-4-methyl-1H-imidazol-2-yl]-1-piperidyl]-7H-pyrrolo[2,3-d]pyrimidin-6-yl]benzonitrile]	1 to 10
CCOc1ccc(-c2[nH]c(C3(C)CCN(c4ncnc5[nH]c(-c6ccc(OC)nc6)cc45)CC3)nc2C)cc1 [P-3171, 4-[4-[5-(4-ethoxyphenyl)-4-methyl-1H-imidazol-2-yl]-4-methyl-1-piperidyl]-6-(6-methoxy-3-pyridyl)-7H-pyrrolo[2,3-d]pyrimidine]	0.0001 to 1
COc1ccc(-c2[nH]c(C3(C)CCN(c4ncnc5[nH]c(-c6ccc(C#N)cc6)cc45)CC3)nc2C)cn1 [P-3172, 4-[4-[4-[5-(6-methoxy-3-pyridyl)-4-methyl-1H-imidazol-2-yl]-4-methyl-1-piperidyl]-7H-pyrrolo[2,3-d]pyrimidin-6-yl]benzonitrile]	0.0001 to 1
COc1ncc(-c2[nH]c(C3CCN(c4ncnc5[nH]c(-c6ccc(C#N)cc6)cc45)CC3)nc2C)cc1F [P-3173, 4-[4-[4-[5-(5-fluoro-6-methoxy-3-pyridyl)-4-methyl-1H-imidazol-2-yl]-1-piperidyl]-7H-pyrrolo[2,3-d]pyrimidin-6-yl]benzonitrile]	0.0001 to 1
Cc1nc(C2(C)CCN(c3ncnc4[nH]c(-c5cnn(C(F)F)c5)cc34)CC2)[nH]c1-c1ccc(Cl)cc1 [P-3175, 4-[4-[5-(4-chlorophenyl)-4-methyl-1H-imidazol-2-yl]-4-methyl-1-piperidyl]-6-[1-(difluoromethyl)pyrazol-4-yl]-7H-pyrrolo[2,3-d]pyrimidine]	0.0001 to 1
COc1ccc(-c2cc3c(N4CCC(C)(c5nc(C)c(-c6ccc(Cl)cc6)[nH]5)CC4)ncnc3[nH]2)cn1 [P-3176, 4-[4-[5-(4-chlorophenyl)-4-methyl-1H-imidazol-2-yl]-4-methyl-1-piperidyl]-6-(6-methoxy-3-pyridyl)-7H-pyrrolo[2,3-d]pyrimidine]	0.0001 to 1
Cc1nc(C2(C)CCN(c3ncnc4[nH]c(-c5ccc(C#N)cc5)cc34)CC2)[nH]c1-c1ccc(C(F)(F)F)cc1 [P-3177, 4-[4-[4-methyl-4-[4-methyl-5-[4-(trifluoromethyl)phenyl]-1H-imidazol-2-yl]-1-piperidyl]-7H-pyrrolo[2,3-d]pyrimidin-6-yl]benzonitrile]	0.0001 to 1
COc1ccc(-c2cc3c(N4CCC(C)(c5nc(C)c(-c6ccc(C(F)(F)F)cc6)[nH]5)CC4)ncnc3[nH]2)cn1 [P-3178, 6-(6-methoxy-3-pyridyl)-4-[4-methyl-4-[4-methyl-5-[4-(trifluoromethyl)phenyl]-1H-imidazol-2-yl]-1-piperidyl]-7H-pyrrolo[2,3-d]pyrimidine]	0.0001 to 1
Cc1nc(C2(C)CCN(c3ncnc4[nH]c(-c5cnn(C(F)F)c5)cc34)CC2)[nH]c1-c1ccc(C(F)(F)F)cc1 [P-3179, 6-[1-(difluoromethyl)pyrazol-4-yl]-4-[4-methyl-4-[4-methyl-5-[4-(trifluoromethyl)phenyl]-1H-imidazol-2-yl]-1-piperidyl]-7H-pyrrolo[2,3-d]pyrimidine]	0.0001 to 1
Cc1nc(C2(C)CCN(c3ncnc4[nH]c(-c5ccc(C#N)cc5)cc34)CC2)[nH]c1-c1ccc(Cl)cc1 [P-3180, 4-[4-[4-[5-(4-chlorophenyl)-4-methyl-1H-imidazol-2-yl]-4-methyl-1-piperidyl]-7H-pyrrolo[2,3-d]pyrimidin-6-yl]benzonitrile]	0.0001 to 1
COc1ncc(-c2[nH]c(C3(C)CCN(c4ncnc5[nH]c(-c6ccc(C#N)cc6)cc45)CC3)nc2C)cc1F [P-3181, 4-[4-[4-[5-(5-fluoro-6-methoxy-3-pyridyl)-4-methyl-1H-imidazol-2-yl]-4-methyl-1-piperidyl]-7H-pyrrolo[2,3-d]pyrimidin-6-yl]benzonitrile]	0.0001 to 1
COc1ccc(-c2[nH]c(C3(C)CCN(c4ncnc5[nH]c(-c6cnn(C(F)F)c6)cc45)CC3)nc2C)cn1 [P-3182, 6-[1-(difluoromethyl)pyrazol-4-yl]-4-[4-[5-(6-methoxy-3-pyridyl)-4-methyl-1H-imidazol-2-yl]-4-methyl-1-piperidyl]-7H-pyrrolo[2,3-d]pyrimidine]	0.0001 to 1
COc1ccc(-c2[nH]c(C3(C)CCN(c4ncnc5[nH]c(C)cc45)CC3)nc2C)cc1F [P-3183, 4-[4-[5-(3-fluoro-4-methoxy-phenyl)-4-methyl-1H-imidazol-2-yl]-4-methyl-1-piperidyl]-6-methyl-7H-pyrrolo[2,3-d]pyrimidine]	0.0001 to 1
Cc1cc2c(N3CCC(C)(c4nc(C)c(-c5ccc(C(F)F)cc5)[nH]4)CC3)ncnc2[nH]1 [P-3184, 4-[4-[5-[4-(difluoromethyl)phenyl]-4-methyl-1H-imidazol-2-yl]-4-methyl-1-piperidyl]-6-methyl-7H-pyrrolo[2,3-d]pyrimidine]	0.0001 to 1
COc1ncc(-c2nc(C3(C)CCN(c4ncnc5[nH]c(C)cc45)CC3)[nH]c2C)cc1F [P-3185, 4-[4-[4-(5-fluoro-6-methoxy-3-pyridyl)-5-methyl-1H-imidazol-2-yl]-4-methyl-1-piperidyl]-6-methyl-7H-pyrrolo[2,3-d]pyrimidine]	1 to 10
COc1ccc(-c2nc(C3(C)CCN(c4ncnc5[nH]c(C)cc45)CC3)[nH]c2C)cn1 [P-3186, 4-[4-[4-(6-methoxy-3-pyridyl)-5-methyl-1H-imidazol-2-yl]-4-methyl-1-piperidyl]-6-methyl-7H-pyrrolo[2,3-d]pyrimidine]	1 to 10
COc1ccc(-c2[nH]c(C3(C)CCN(c4ncnc5[nH]c(-c6cnn(C(F)F)c6)cc45)CC3)nc2C)cc1F [P-3187, 6-[1-(difluoromethyl)pyrazol-4-yl]-4-[4-[5-(3-fluoro-4-methoxy-phenyl)-4-methyl-1H-imidazol-2-yl]-4-methyl-1-piperidyl]-7H-pyrrolo[2,3-d]pyrimidine]	0.0001 to 1
COc1ccc(-c2cc3c(N4CCC(C)(c5nc(C)c(-c6ccc(OC)c(F)c6)[nH]5)CC4)ncnc3[nH]2)cn1 [P-3188, 4-[4-[5-(3-fluoro-4-methoxy-phenyl)-4-methyl-1H-imidazol-2-yl]-4-methyl-1-piperidyl]-6-(6-methoxy-3-pyridyl)-7H-pyrrolo[2,3-d]pyrimidine]	0.0001 to 1
Cc1nc(C2(C)CCN(c3ncnc4[nH]c(-c5cnn(C(F)F)c5)cc34)CC2)[nH]c1-c1ccc(C(F)F)cc1 [P-3189, 4-[4-[5-[4-(difluoromethyl)phenyl]-4-methyl-1H-imidazol-2-yl]-4-methyl-1-piperidyl]-6-[1-(difluoromethyl)pyrazol-4-yl]-7H-pyrrolo[2,3-d]pyrimidine]	0.0001 to 1
COc1ccc(-c2cc3c(N4CCC(C)(c5nc(C)c(-c6ccc(C(F)F)cc6)[nH]5)CC4)ncnc3[nH]2)cn1 [P-3190, 4-[4-[5-[4-(difluoromethyl)phenyl]-4-methyl-1H-imidazol-2-yl]-4-methyl-1-piperidyl]-6-(6-methoxy-3-pyridyl)-7H-pyrrolo[2,3-d]pyrimidine]	0.0001 to 1
Cc1cc2c(N3CCC(C)(c4nc(C)c(-c5cccc(OC(F)F)c5)[nH]4)CC3)ncnc2[nH]1 [P-3191, 4-[4-[5-[3-(difluoromethoxy)phenyl]-4-methyl-1H-imidazol-2-yl]-4-methyl-1-piperidyl]-6-methyl-7H-pyrrolo[2,3-d]pyrimidine]	1 to 10
Cc1nc(C2(C)CCN(c3ncnc4[nH]c(-c5cnn(C(F)F)c5)cc34)CC2)[nH]c1-c1cccc(OC(F)F)c1 [P-3192, 4-[4-[5-[3-(difluoromethoxy)phenyl]-4-methyl-1H-imidazol-2-yl]-4-methyl-1-piperidyl]-6-[1-(difluoromethyl)pyrazol-4-yl]-7H-pyrrolo[2,3-d]pyrimidine]	0.0001 to 1
COc1ccc(-c2cc3c(N4CCC(C)(c5nc(C)c(-c6cccc(OC(F)F)c6)[nH]5)CC4)ncnc3[nH]2)cn1 [P-3193, 4-[4-[5-[3-(difluoromethoxy)phenyl]-4-methyl-1H-imidazol-2-yl]-4-methyl-1-piperidyl]-6-(6-methoxy-3-pyridyl)-7H-pyrrolo[2,3-d]pyrimidine]	0.0001 to 1
Cc1nc(C2(C)CCN(c3ncnc4[nH]c(-c5ccc(C#N)cc5)cc34)CC2)[nH]c1-c1cccc(OC(F)F)c1 [P-3194, 4-[4-[4-[5-[3-(difluoromethoxy)phenyl]-4-methyl-1H-imidazol-2-yl]-4-methyl-1-piperidyl]-7H-pyrrolo[2,3-d]pyrimidin-6-yl]benzonitrile]	1 to 10
Cc1nc(C2(C)CCN(c3ncnc4[nH]c(-c5ccc(C#N)cc5)cc34)CC2)[nH]c1-c1ccc(OC(F)F)cc1 [P-3195, 4-[4-[4-[5-[4-(difluoromethoxy)phenyl]-4-methyl-1H-imidazol-2-yl]-4-methyl-1-piperidyl]-7H-pyrrolo[2,3-d]pyrimidin-6-yl]benzonitrile]	0.0001 to 1
